What was measured:
Wild type HEK-293 = assay: ATP-dependent endogenous currents, whole-cell patch-clamp; assay type: cell-based, human; settings: 6 mM ATP in pipette solution
Method: (§1) For patch-clamp experiments, cells grown on glass coverslips were transferred to the recording chamber and kept in a standard modified Ringer's solution of the following composition (in mM): NaCl 145, KCl 2.8, CsCl 10, CaCl2 1, MgCl2 2, glucose 10, Hepes.NaOH 10, pH 7.2. In some experiments, nominally Ca^2+ and/or Mg^2+-free extracellular solutions or isotonic Ca^2+ solutions (120 mM CaCl2) were applied by pressure ejection from wide-tipped pipettes. Intracellular pipette-filling solutions contained (in mM): Cs-glutamate 145, NaCl 8, MgCl2 1, Cs-BAPTA 10, pH 7.2 adjusted with CsOH. In some experiments, Cs-glutamate was replaced equimolarly by K-glutamate or N-methyl-D-glucamine-chloride. Patch-clamp experiments were performed in the tight-seal whole-cell configuration at 21-25° C. High-resolution current recordings were acquired by a computer-based patch-clamp amplifier system (EPC-9, HEKA, Lambrecht, Germany). Sylgard-coated patch pipettes had resistances between 2-4 M after filling with the standard intracellular solution. […] Capacitive currents and series resistance were determined and corrected before each voltage ramp using the automatic capacitance compensation of the EPC-9. […]

LTRPC7 = target: T1, LTRPC7 (Mus musculus, UniProt Q923J1); assay: Intracellular perfusion with ATP, whole-cell patch-clamp of recombinant LTRPC7; assay type: cell-based
T1 construct: expressed in transfected cells
T1 sequence (Q923J1 2-1863 limits assumed): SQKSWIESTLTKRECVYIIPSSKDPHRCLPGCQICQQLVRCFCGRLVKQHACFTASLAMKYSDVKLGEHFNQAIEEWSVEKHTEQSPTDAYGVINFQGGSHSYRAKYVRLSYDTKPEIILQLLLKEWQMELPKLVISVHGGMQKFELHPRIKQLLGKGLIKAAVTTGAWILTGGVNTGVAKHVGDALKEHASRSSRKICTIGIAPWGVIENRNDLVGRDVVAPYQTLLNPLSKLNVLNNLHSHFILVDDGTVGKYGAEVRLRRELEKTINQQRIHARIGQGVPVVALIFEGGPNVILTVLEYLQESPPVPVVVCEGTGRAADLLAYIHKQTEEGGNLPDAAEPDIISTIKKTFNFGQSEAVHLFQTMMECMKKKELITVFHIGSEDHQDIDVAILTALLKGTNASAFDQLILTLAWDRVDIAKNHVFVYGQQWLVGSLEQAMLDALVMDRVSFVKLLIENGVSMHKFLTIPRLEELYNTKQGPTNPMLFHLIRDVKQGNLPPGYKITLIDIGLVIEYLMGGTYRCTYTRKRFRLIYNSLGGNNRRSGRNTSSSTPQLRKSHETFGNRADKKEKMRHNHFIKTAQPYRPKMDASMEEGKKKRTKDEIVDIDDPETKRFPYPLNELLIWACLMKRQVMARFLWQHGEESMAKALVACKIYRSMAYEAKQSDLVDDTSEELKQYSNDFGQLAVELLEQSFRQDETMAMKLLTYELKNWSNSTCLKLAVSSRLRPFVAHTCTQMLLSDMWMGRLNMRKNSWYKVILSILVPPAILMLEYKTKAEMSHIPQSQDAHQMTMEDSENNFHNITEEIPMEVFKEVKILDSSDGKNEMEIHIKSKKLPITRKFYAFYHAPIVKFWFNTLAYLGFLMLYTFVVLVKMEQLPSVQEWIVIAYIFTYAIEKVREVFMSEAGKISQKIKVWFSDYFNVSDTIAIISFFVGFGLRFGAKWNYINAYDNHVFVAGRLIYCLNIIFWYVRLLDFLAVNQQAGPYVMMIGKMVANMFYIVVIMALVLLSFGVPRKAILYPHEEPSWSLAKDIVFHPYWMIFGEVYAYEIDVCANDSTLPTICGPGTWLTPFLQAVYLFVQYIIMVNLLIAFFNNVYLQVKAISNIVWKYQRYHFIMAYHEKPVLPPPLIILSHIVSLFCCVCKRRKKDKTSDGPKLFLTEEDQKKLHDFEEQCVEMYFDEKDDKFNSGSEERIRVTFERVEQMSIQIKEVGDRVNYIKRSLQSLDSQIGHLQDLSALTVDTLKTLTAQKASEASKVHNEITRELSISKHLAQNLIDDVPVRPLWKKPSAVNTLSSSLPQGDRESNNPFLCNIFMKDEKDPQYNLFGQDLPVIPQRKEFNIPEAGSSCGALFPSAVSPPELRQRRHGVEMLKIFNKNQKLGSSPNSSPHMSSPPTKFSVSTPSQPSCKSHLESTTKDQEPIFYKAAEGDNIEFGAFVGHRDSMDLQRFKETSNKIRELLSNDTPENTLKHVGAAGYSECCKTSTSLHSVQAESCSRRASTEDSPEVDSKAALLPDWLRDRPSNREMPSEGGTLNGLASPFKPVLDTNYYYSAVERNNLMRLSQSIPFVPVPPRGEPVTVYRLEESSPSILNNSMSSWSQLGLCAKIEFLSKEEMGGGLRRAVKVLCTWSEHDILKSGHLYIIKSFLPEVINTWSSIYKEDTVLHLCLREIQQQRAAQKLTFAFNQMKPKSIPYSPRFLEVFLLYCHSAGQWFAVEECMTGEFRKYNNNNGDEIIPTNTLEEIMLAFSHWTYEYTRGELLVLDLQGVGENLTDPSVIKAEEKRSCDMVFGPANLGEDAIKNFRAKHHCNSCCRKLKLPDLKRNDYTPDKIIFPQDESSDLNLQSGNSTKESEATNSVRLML
Method: For patch-clamp experiments, cells grown on glass coverslips were transferred to the recording chamber and kept in a standard modified Ringer's solution of the following composition (in mM): NaCl 145, KCl 2.8, CsCl 10, CaCl2 1, MgCl2 2, glucose 10, Hepes.NaOH 10, pH 7.2. In some experiments, nominally Ca^2+ and/or Mg^2+-free extracellular solutions or isotonic Ca^2+ solutions (120 mM CaCl2) were applied by pressure ejection from wide-tipped pipettes. Intracellular pipette-filling solutions contained (in mM): Cs-glutamate 145, NaCl 8, MgCl2 1, Cs-BAPTA 10, pH 7.2 adjusted with CsOH. In some experiments, Cs-glutamate was replaced equimolarly by K-glutamate or N-methyl-D-glucamine-chloride. Patch-clamp experiments were performed in the tight-seal whole-cell configuration at 21-25° C. High-resolution current recordings were acquired by a computer-based patch-clamp amplifier system (EPC-9, HEKA, Lambrecht, Germany). Sylgard-coated patch pipettes had resistances between 2-4 M after filling with the standard intracellular solution. Immediately following establishment of the whole-cell configuration, voltage ramps of 50 ms duration spanning the voltage range of −100 to +100 mV were delivered from a holding potential of 0 mV at a rate of 0.5 Hz over a period of 200 to 400 seconds. All voltages were corrected for a liquid junction potential of 10 mV between external and internal solutions when internal solutions contained glutamate. Currents were filtered at 2.3 kHz and digitized at 100 μs intervals. Capacitive currents and series resistance were determined and corrected before each voltage ramp using the automatic capacitance compensation of the EPC-9. The low-resolution temporal development of currents at a given potential was extracted from individual ramp current records by measuring the current amplitudes at voltages of −80 mV or +80 mV.

Jurkat T-lymphocytes = assay: ATP-dependent endogenous currents, whole-cell patch-clamp; assay type: cell-based; settings: 6 mM ATP in pipette solution
Method: as §1

RBL-2H3 = assay: as above; assay type: cell-based; settings: 6 mM ATP in pipette solution
Method: as §1

SMILES: Nc1ncnc2c1ncn2[C@@H]1O[C@H](COP(=O)(O)OP(=O)(O)OP(=O)(O)O)[C@@H](O)[C@H]1O [ATP]
- outwardly rectifying cationic conductance (Wild type HEK-293): absent
- change of maximum outward current after whole-cell establishment (LTRPC7; 6 mM ATP in pipette, +80 mV, 300 s): currents are actually decreasing after break-in
- intracellular concentration that causes the LTRPC7 channel to close (LTRPC7; intracellular ATP): 6-10 millimolar
- intracellular concentration that causes the LTRPC7 channel to reopen (LTRPC7; intracellular ATP): 0-4 millimolar
- outwardly rectifying cationic conductance (Jurkat T-lymphocytes): absent
- outwardly rectifying cationic conductance (RBL-2H3): absent
